How the values were obtained:
Test in all cases: KinaseProfiler off-target kinase profiling
Assay type in all cases: biochemical
Settings in all cases: 10 μM, ATP near Km
PKCzeta = molecular target: T1, PKCzeta (Homo sapiens, UniProt Q05513)
T1 construct: purchased Millipore, Inc. (KinaseProfiler service)
How it was run: (§1)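 POC (mean, n=2) at 10 μM inhibitor; ATP near Km of each enzyme.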

CDK2/cyclinA = molecular target: T2, CDK2/cyclinA (Homo sapiens, UniProt P24941)
T2 construct: purchased Millipore, Inc. (KinaseProfiler service)
How it was run: as §1

Hck = molecular target: T3, Hck (Homo sapiens, UniProt P08631)
T3 construct: purchased Millipore, Inc. (KinaseProfiler service)
How it was run: as §1

MEK1 = molecular target: T4, MEK1 (Homo sapiens, UniProt Q02750)
T4 construct: purchased Millipore, Inc. (KinaseProfiler service)
How it was run: as §1

CDK3/cyclinE = molecular target: T5, CDK3/cyclinE (Homo sapiens, UniProt Q00526)
T5 construct: purchased Millipore, Inc. (KinaseProfiler service)
How it was run: as §1

PASK = molecular target: T6, PASK (Homo sapiens, UniProt Q96RG2)
T6 construct: purchased Millipore, Inc. (KinaseProfiler service)
How it was run: as §1

ARK5 = molecular target: T7, ARK5 (Homo sapiens, UniProt O60285)
T7 construct: purchased Millipore, Inc. (KinaseProfiler service)
How it was run: as §1

JAK2 = molecular target: T8, JAK2 (Homo sapiens, UniProt O60674)
T8 construct: purchased Millipore, Inc. (KinaseProfiler service)
How it was run: as §1

EphA1 = molecular target: T9, EphA1 (Homo sapiens, UniProt P21709)
T9 construct: purchased Millipore, Inc. (KinaseProfiler service)
How it was run: as §1

DYRK2 = molecular target: T10, DYRK2 (Homo sapiens, UniProt Q92630)
T10 construct: purchased Millipore, Inc. (KinaseProfiler service)
How it was run: as §1

Rsk2 = molecular target: T11, Rsk2 (Homo sapiens, UniProt P51812)
T11 construct: purchased Millipore, Inc. (KinaseProfiler service)
How it was run: as §1

SRPK2 = molecular target: T12, SRPK2 (Homo sapiens, UniProt P78362)
T12 construct: purchased Millipore, Inc. (KinaseProfiler service)
How it was run: as §1

CK2alpha2 = molecular target: T13, CK2alpha2 (Homo sapiens, UniProt P19784)
T13 construct: purchased Millipore, Inc. (KinaseProfiler service)
How it was run: as §1

GRK5 = molecular target: T14, GRK5 (Homo sapiens, UniProt P34947)
T14 construct: purchased Millipore, Inc. (KinaseProfiler service)
How it was run: as §1

Axl = molecular target: T15, Axl (Homo sapiens, UniProt P30530)
T15 construct: purchased Millipore, Inc. (KinaseProfiler service)
How it was run: as §1

CDK1/cyclinB = molecular target: T16, CDK1/cyclinB (Homo sapiens, UniProt P06493)
T16 construct: purchased Millipore, Inc. (KinaseProfiler service)
How it was run: as §1

Fyn = molecular target: T17, Fyn (Homo sapiens, UniProt P06241)
T17 construct: purchased Millipore, Inc. (KinaseProfiler service)
How it was run: as §1

CDK6/cyclinD3 = molecular target: T18, CDK6/cyclinD3 (Homo sapiens, UniProt Q00534)
T18 construct: purchased Millipore, Inc. (KinaseProfiler service)
How it was run: as §1

MAPKAP-K5 = molecular target: T19, MAPKAP-K5 (Homo sapiens, UniProt Q8IW41)
T19 construct: purchased Millipore, Inc. (KinaseProfiler service)
How it was run: as §1

HIPK3 = molecular target: T20, HIPK3 (Homo sapiens, UniProt Q9H422)
T20 construct: purchased Millipore, Inc. (KinaseProfiler service)
How it was run: as §1

PKD2 = molecular target: T21, PKD2 (Homo sapiens, UniProt Q9BZL6)
T21 construct: purchased Millipore, Inc. (KinaseProfiler service)
How it was run: as §1

DCAMKL2 = molecular target: T22, DCAMKL2 (Homo sapiens, UniProt Q8N568)
T22 construct: purchased Millipore, Inc. (KinaseProfiler service)
How it was run: as §1

DDR2 = molecular target: T23, DDR2 (Homo sapiens, UniProt Q16832)
T23 construct: purchased Millipore, Inc. (KinaseProfiler service)
How it was run: as §1

JNK1alpha1 = molecular target: T24, JNK1alpha1 (Homo sapiens, UniProt P45983)
T24 construct: purchased Millipore, Inc. (KinaseProfiler service)
How it was run: as §1

Haspin = molecular target: T25, Haspin (Homo sapiens, UniProt Q8TF76)
T25 construct: purchased Millipore, Inc. (KinaseProfiler service)
How it was run: as §1

CLK3 = molecular target: T26, CLK3 (Homo sapiens, UniProt P49761)
T26 construct: purchased Millipore, Inc. (KinaseProfiler service)
How it was run: as §1

Lyn = molecular target: T27, Lyn (Homo sapiens, UniProt P07948)
T27 construct: purchased Millipore, Inc. (KinaseProfiler service)
How it was run: as §1

GSK3beta = molecular target: T28, GSK3beta (Homo sapiens, UniProt P49841)
T28 construct: purchased Millipore, Inc. (KinaseProfiler service)
How it was run: as §1

CK1delta = molecular target: T29, CK1delta (Homo sapiens, UniProt P48730)
T29 construct: purchased Millipore, Inc. (KinaseProfiler service)
How it was run: as §1

p38gamma = molecular target: T30, p38gamma (Homo sapiens, UniProt P53778)
T30 construct: purchased Millipore, Inc. (KinaseProfiler service)
How it was run: as §1

PKD1 = molecular target: T31, PKD1 (Homo sapiens, UniProt Q15139)
T31 construct: purchased Millipore, Inc. (KinaseProfiler service)
How it was run: as §1

c-RAF = molecular target: T32, c-RAF (Homo sapiens, UniProt P04049, Y340D/Y341D)
T32 construct: purchased Millipore, Inc. (KinaseProfiler service)
How it was run: as §1

Fms = molecular target: T33, Fms (Homo sapiens, UniProt P07333)
T33 construct: purchased Millipore, Inc. (KinaseProfiler service)
How it was run: as §1

ZAP-70 = molecular target: T34, ZAP-70 (Homo sapiens, UniProt P43403)
T34 construct: purchased Millipore, Inc. (KinaseProfiler service)
How it was run: as §1

T12 sequence (P78362 whole entry): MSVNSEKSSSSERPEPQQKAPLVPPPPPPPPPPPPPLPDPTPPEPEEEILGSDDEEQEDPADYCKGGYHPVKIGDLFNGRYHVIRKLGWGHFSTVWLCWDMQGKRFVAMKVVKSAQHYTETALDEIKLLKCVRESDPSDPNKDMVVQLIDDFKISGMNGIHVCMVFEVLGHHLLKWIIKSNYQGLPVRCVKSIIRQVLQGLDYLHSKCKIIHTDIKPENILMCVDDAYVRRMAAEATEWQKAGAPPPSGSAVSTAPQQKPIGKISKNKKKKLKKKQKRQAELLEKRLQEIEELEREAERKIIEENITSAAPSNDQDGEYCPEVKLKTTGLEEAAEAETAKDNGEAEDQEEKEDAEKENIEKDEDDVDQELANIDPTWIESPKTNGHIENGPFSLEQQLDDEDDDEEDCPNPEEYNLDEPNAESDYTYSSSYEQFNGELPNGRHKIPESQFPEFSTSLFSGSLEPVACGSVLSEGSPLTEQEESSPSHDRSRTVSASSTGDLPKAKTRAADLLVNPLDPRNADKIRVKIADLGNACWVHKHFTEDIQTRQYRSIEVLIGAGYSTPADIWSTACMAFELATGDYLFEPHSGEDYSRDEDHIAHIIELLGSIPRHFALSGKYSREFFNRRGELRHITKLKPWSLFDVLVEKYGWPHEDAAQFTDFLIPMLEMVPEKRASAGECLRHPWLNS
T33 sequence (P07333 20-972): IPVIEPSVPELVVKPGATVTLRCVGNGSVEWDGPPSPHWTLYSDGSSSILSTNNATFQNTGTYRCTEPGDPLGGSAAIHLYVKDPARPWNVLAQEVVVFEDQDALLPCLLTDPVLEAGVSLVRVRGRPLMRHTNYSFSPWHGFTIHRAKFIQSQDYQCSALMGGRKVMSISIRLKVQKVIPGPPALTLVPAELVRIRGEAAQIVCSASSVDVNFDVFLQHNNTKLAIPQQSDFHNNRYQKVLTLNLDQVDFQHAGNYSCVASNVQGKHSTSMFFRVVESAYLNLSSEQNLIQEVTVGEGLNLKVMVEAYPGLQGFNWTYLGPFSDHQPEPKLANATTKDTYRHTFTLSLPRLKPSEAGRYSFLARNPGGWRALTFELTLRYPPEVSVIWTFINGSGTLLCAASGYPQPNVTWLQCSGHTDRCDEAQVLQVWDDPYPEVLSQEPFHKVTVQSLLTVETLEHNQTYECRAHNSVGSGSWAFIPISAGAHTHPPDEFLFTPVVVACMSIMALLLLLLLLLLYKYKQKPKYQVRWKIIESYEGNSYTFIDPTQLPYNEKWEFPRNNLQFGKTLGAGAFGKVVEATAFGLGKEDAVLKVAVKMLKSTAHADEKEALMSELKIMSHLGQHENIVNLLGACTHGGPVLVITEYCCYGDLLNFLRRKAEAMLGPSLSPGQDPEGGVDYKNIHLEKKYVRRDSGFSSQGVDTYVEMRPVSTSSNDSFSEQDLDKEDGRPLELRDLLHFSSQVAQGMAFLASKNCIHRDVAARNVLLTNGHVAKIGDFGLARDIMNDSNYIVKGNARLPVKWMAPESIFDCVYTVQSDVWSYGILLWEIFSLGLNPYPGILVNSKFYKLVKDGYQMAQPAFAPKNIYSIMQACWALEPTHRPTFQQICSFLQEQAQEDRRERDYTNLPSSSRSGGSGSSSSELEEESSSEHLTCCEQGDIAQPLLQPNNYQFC
T4 sequence (Q02750 whole entry): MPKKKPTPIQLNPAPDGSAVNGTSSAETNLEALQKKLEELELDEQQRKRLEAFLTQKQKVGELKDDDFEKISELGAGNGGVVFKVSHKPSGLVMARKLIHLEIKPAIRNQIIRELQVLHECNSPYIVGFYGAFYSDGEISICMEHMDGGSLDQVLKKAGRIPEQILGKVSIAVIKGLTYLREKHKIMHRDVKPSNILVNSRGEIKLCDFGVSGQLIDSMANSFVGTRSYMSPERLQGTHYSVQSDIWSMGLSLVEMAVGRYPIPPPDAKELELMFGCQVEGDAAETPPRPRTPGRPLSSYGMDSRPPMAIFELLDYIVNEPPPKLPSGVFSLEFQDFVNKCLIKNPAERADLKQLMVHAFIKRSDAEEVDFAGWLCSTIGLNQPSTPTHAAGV
T24 sequence (P45983 1-384 isoform P45983-2): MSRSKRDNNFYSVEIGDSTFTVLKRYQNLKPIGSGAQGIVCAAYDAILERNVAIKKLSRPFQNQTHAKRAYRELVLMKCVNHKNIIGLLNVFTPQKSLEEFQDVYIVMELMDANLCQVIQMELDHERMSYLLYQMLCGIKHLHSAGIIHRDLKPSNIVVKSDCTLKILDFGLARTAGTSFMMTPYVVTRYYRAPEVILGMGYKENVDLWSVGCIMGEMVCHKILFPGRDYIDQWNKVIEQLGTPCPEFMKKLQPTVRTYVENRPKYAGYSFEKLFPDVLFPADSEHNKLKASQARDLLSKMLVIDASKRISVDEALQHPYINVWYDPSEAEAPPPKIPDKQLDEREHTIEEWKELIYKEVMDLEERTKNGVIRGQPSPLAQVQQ
T22 sequence (Q8N568 whole entry): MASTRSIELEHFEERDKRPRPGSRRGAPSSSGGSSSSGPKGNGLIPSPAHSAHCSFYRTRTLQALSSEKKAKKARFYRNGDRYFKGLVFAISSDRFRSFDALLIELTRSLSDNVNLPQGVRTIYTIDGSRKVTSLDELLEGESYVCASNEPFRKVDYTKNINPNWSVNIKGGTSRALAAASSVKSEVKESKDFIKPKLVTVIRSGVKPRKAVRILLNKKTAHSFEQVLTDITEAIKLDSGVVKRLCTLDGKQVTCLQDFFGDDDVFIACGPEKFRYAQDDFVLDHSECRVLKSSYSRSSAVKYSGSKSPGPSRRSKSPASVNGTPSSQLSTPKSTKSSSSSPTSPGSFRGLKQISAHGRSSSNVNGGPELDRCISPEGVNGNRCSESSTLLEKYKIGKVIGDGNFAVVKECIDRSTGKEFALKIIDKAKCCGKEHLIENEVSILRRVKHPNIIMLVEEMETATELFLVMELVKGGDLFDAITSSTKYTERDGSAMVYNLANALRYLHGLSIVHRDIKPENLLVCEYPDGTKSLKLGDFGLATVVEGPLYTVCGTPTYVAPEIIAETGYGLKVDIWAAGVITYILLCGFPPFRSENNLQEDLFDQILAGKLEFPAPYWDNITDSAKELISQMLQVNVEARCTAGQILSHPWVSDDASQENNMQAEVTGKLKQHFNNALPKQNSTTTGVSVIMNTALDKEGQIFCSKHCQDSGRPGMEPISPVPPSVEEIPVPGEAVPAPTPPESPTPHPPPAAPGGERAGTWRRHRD
T14 sequence (P34947 whole entry): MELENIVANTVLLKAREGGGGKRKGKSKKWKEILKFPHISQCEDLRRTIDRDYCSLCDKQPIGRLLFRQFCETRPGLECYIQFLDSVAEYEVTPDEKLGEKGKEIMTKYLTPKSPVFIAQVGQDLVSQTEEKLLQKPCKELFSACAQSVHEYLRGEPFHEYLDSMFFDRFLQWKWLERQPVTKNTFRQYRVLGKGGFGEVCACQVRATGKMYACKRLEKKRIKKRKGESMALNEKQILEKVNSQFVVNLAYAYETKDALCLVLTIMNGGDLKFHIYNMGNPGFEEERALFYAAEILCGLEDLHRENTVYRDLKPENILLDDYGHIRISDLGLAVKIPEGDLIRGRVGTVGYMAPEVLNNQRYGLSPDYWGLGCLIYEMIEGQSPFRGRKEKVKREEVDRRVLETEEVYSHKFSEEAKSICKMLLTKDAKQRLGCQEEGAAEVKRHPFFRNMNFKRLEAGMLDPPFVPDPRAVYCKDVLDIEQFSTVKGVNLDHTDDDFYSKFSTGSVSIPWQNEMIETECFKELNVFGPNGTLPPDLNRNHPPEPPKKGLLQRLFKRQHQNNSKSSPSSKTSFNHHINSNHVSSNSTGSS
T11 sequence (P51812 whole entry): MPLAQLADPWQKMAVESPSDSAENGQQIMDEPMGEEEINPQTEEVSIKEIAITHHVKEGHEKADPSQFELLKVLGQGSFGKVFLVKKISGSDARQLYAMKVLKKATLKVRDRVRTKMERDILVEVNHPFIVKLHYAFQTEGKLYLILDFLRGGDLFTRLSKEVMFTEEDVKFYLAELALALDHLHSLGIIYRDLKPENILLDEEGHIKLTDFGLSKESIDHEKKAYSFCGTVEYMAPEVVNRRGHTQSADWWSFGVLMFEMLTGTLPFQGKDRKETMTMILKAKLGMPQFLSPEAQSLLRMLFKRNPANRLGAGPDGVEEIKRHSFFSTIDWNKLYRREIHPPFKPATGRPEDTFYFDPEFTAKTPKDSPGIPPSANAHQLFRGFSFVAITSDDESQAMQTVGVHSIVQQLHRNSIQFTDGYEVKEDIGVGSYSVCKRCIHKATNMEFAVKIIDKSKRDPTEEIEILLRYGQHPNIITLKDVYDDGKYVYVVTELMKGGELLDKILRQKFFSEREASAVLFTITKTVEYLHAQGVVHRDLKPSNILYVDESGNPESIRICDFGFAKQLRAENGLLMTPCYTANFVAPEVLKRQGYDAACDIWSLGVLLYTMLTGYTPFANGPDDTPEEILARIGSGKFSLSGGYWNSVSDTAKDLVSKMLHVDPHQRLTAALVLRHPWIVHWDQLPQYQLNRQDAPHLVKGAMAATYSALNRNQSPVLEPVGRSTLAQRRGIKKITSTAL
T3 sequence (P08631 whole entry): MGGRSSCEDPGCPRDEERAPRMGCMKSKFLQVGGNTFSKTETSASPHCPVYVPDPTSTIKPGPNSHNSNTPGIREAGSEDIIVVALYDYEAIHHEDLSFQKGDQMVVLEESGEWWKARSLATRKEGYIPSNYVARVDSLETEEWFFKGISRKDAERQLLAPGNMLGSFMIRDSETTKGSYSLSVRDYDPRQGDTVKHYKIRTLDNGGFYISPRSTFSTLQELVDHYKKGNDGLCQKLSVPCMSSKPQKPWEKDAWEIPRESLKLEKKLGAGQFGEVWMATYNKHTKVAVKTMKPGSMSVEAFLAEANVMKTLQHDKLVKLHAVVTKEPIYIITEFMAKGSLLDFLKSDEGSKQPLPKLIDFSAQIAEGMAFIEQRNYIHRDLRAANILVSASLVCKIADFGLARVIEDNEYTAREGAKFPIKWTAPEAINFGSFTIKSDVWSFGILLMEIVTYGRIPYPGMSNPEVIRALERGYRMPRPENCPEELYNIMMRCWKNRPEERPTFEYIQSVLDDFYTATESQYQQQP

SMILES: COCCN1C[C@@H](NC(=O)Nc2sc(C(C)C)nc2-c2ccccc2)[C@H](c2ccccc2)C1 [Example 48, 1-(2-isopropyl-4-phenylthiazol-5-yl)-3-((3S,4R)-1-(2-methoxyethyl)-4-phenylpyrrolidin-3-yl)urea]
- Avg POC (PKCzeta): 108% of control
- Avg POC (CDK2/cyclinA): 110% of control
- Avg POC (Hck): 115.5% of control
- Avg POC (MEK1): 100% of control
- Avg POC (CDK3/cyclinE): 99.5% of control
- Avg POC (PASK): 103% of control
- Avg POC (ARK5): 106% of control
- Avg POC (JAK2): 123.5% of control
- Avg POC (EphA1): 113.5% of control
- Avg POC (DYRK2): 103.5% of control
- Avg POC (Rsk2): 134% of control
- Avg POC (SRPK2): 109% of control
- Avg POC (CK2alpha2): 113% of control
- Avg POC (GRK5): 106.5% of control
- Avg POC (Axl): 113% of control
- Avg POC (CDK1/cyclinB): 106% of control
- Avg POC (Fyn): 108.5% of control
- Avg POC (CDK6/cyclinD3): 112.5% of control
- Avg POC (MAPKAP-K5): 108% of control
- Avg POC (HIPK3): 82% of control
- Avg POC (PKD2): 115.5% of control
- Avg POC (DCAMKL2): 142% of control
- Avg POC (DDR2): 101.5% of control
- Avg POC (JNK1alpha1): 106.5% of control
- Avg POC (Haspin): 117% of control
- Avg POC (CLK3): 101.5% of control
- Avg POC (Lyn): 108.5% of control
- Avg POC (GSK3beta): 63% of control
- Avg POC (CK1delta): 111.5% of control
- Avg POC (p38gamma): 120.5% of control
- Avg POC (PKD1): 94.5% of control
- Avg POC (c-RAF): 106% of control
- Avg POC (Fms): 96% of control
- Avg POC (ZAP-70): 100.5% of control

Source: patent publication US9828360B2 (Array BioPharma Inc., priority 2012, dated 2017)
